This is an account of results in article PMC7463862, “Gene Cloning, Characterization, and Molecular Simulations of a Novel Recombinant Chitinase from Chitinibacter Tainanensis CT01 Appropriate for Chitin Enzymatic Hydrolysis” (Polymers, 2020).

This assay deals with T1, chitinase 1198 Truncated.
T1 construct: gene CT01GL001198; perhaps lacks disordered N-terminus (residues 1-201; approx. 63 kD proteolysis bands mentioned)
Description: p-nitrophenol release, absorbance at […] nm. The class given is biochemical, Chitinibacter tainanensis. The settings on record: standard assay 50 mM Tris-HCl pH 7.0, substrate 5-300 μM; temperature of kinetic run not stated.

Molecules are shown by their SMILES.

On to `CC(=O)N[C@H]1[C@H](Oc2ccc([N+](=O)[O-])cc2)O[C@H](CO)[C@@H](O[C@@H]2O[C@H](CO)[C@@H](O)[C@H](O)[C@H]2NC(C)=O)[C@@H]1O` [pNP-(GlcNAc)2], for which the Km was 58.3 ± 11 µM.
